Experimental data taken from patent US20120029018A1, “9-SUBSTITUTED PHENANTHRENE BASED TYLOPHORINE DERIVATIVES” (priority 2008, published 2012).
Values after ≈ are worked out from the molar mass of the structure shown. Values joined by “and” are separate entries in the source; they are usually repeats but may differ in a detail not shown here. Equal entries are not always repeated.

Legend:
[1] = test system: KB-VIN (an MDR KB subline); assay: In vitro anticancer activity against KB-VIN cells; type: cell-based, human; details: for IC50 KBvin: KBvin cells
KB (nasopharyngeal) = assay: In vitro anticancer activity against KB cells; type: cell-based, human; details: for IC50 KB: KB cells
DU-145 (prostate) = assay: In vitro anticancer activity against DU-145 cells; type: cell-based, human; details: for IC50 DU145: DU145 cells
A549 (lung) = assay: In vitro anticancer activity against A549 cells; type: cell-based, human; details: for IC50 A549: A549 cells
[2] = test system: cyclin B1 and cyclin D1 protein; assay: Cyclin protein levels; type: cell-based
Source text: (§1) The reciprocal recruitment of RelA and RelB on COX-2 promoter region led to the downregulation of transcriptional activity. […] PBT-1 may be a good drug candidate for anticancer chemotherapy.

[3] = test system: panel of human tumor cell lines including KB, A549, DU-145 and KB-VIN; details: four human cancer cell lines including MDR KB-VIN; previous research (refs 6,7); read-out: IC50 against four types of human cancer cell lines; cited from earlier work
[4] = test system: Akt activation, RelA (p65), NF-κB target genes; assay: Akt / NF-κB signaling (gels, FIG. 2); type: cell-based
Source text: as §1

[5] = test system: apoptosis pathway, MAPK signaling, NF-κB pathway, focal adhesion; assay: DNA microarray and pathway analysis; type: cell-based
Source text: as §1

CL1-0 = assay: Cell cycle distribution in CL1-0 cells; type: cell-based
Source text: as §1

lung cancer cells = assay: Colony formation of lung cancer cells in vitro; type: cell-based; details: FIG. 1, listed as PBT-1
Source text: as §1

[6] = test system: panel of human tumor cell lines including KB, A549, DU-145 and KB-VIN; assay: In vitro anticancer activity, panel as a whole; type: cell-based; details: for IC50 values across the panel: summary of Table 1

For `COc1ccc2c(CN3CCCC(CN)C3)cc3cc4c(cc3c2c1)OCO4.Cl.Cl` (racemic) [Compound 7], the “IC50 KBvin” value [1] was 0.38 µg/mL, the “IC50 KB” value (KB (nasopharyngeal)) was 0.33 µg/mL and the “IC50 DU145” value (DU-145 (prostate)) was 0.37 µg/mL. The “IC50 A549” value (A549 (lung)) was 0.28 µg/mL.

With `COc1ccc2c(CN3CCCC(CNC(=O)OC(C)(C)C)C3)cc3cc4c(cc3c2c1)OCO4` (racemic) [Compound 8] the “IC50 KBvin” value [1] was 0.62 µg/mL (≈ 1.3 µM), the “IC50 KB” value (KB (nasopharyngeal)) was 0.53 µg/mL (≈ 1.11 µM) and the “IC50 DU145” value (DU-145 (prostate)) was 0.52 µg/mL (≈ 1.09 µM). The “IC50 A549” value (A549 (lung)) was 0.57 µg/mL (≈ 1.19 µM).

In the case of `COC(=O)C1CN(Cc2cc3cc4c(cc3c3cc(OC)ccc23)OCO4)CCC1=O` (racemic) [Compound 16], the “IC50 KBvin” value [1] is reported as 0.83 µg/mL (≈ 1.97 µM), the “IC50 KB” value (KB (nasopharyngeal)) is reported as 0.53 µg/mL (≈ 1.26 µM) and the “IC50 DU145” value (DU-145 (prostate)) is reported as 0.78 µg/mL (≈ 1.85 µM). The “IC50 A549” value (A549 (lung)) was 0.58 µg/mL (≈ 1.38 µM).

For `COc1ccc2c(CN3CCC(CO)CC3)cc3cc4c(cc3c2c1)OCO4` [Compound 1], the “cyclin B1 and cyclin D1 protein level” value [2] is given as “accumulation in dose- and time-dependent manners”, the IC50 [3] is given as roughly 80 nM and the Akt activation [4] is given as “suppress Akt activation”. The “expressions of NF-κB target genes” value [4] was “downregulate the expressions of NF-κB target genes”, the “RelA (p65) degradation” value ([4]; via IκB kinase-α) was “accelerate RelA (p65) degradation” and the IC50 ([1]; Homo sapiens, KBVIN, read-out: IC50 KBvin) was 0.08 µg/mL (≈ 0.211 µM). For the same compound, the IC50 (KB (nasopharyngeal); Homo sapiens, KB, read-out: IC50 KB) was 0.07 µg/mL (≈ 0.184 µM), the IC50 (DU-145 (prostate); Homo sapiens, DU-145, read-out: IC50 DU145) was 0.09 µg/mL (≈ 0.237 µM) and the pathways activated [5] was “activated the apoptosis pathway and mitogen-activated protein kinase signaling”. For the same compound, the pathways suppressed [5] was “suppressed the nuclear factor kappaB (NF-κB) pathway and focal adhesion”, the “G1 (%)” value (CL1-0; CL1-0, 2 Hr.) was 53.7% and the “G2/M (%)” value (CL1-0; CL1-0, 2 Hr.) was 25.4%. The “S (%)” value (CL1-0; CL1-0, 2 Hr.) was 15.1%, the “G1 (%)” value (CL1-0; CL1-0, 6 Hr.) was 52.5% and the “G2/M (%)” value (CL1-0; CL1-0, 6 Hr.) was 24.3%. For the same compound, the “S (%)” value (CL1-0; CL1-0, 6 Hr.) was 15.8%, the “G1 (%)” value (CL1-0; CL1-0, 12 Hr.) was 41.7% and the “G2/M (%)” value (CL1-0; CL1-0, 12 Hr.) was 27.0%. For the same compound, the “S (%)” value (CL1-0; CL1-0, 12 Hr.) was 23.9%, the “G1 (%)” value (CL1-0; CL1-0, 16 Hr.) was 20.4% and the “G2/M (%)” value (CL1-0; CL1-0, 16 Hr.) was 33.6%. The “S (%)” value (CL1-0; CL1-0, 16 Hr.) was 34.1%, the “G1 (%)” value (CL1-0; CL1-0, 24 Hr.) was 16.6% and the “G2/M (%)” value (CL1-0; CL1-0, 24 Hr.) was 20.9%. For the same compound, the “S (%)” value (CL1-0; CL1-0, 24 Hr.) was 43.8%, the “cell cycle arrest and apoptosis” value (CL1-0; Table 2) was “induced cell cycle G2/M arrest and apoptosis” and the IC50 (A549 (lung); Homo sapiens, A549, read-out: IC50 A549) was 0.07 µg/mL (≈ 0.184 µM). The “colony formation of lung cancer cells” value (lung cancer cells) was “significantly suppressed colony formation”.

With `COc1ccc2c(CN3CCCC(NC(=O)OC(C)(C)C)C3)cc3cc4c(cc3c2c1)OCO4` (stereo not drawn) [Compound 9] the “IC50 KBvin” value [1] was 8.40 µg/mL (≈ 18.1 µM), the “IC50 KB” value (KB (nasopharyngeal)) was 6.43 µg/mL (≈ 13.8 µM) and the “IC50 DU145” value (DU-145 (prostate)) was 8.00 µg/mL (≈ 17.2 µM). For the same compound, the “IC50 A549” value (A549 (lung)) was 6.77 µg/mL (≈ 14.6 µM).

With `COc1ccc2c(CN3CCCC(N)C3)cc3cc4c(cc3c2c1)OCO4.Cl.Cl` (stereo not drawn) [Compound 10] the “IC50 KBvin” value [1] was 3.88 µg/mL, the “IC50 KB” value (KB (nasopharyngeal)) was 3.80 µg/mL and the “IC50 DU145” value (DU-145 (prostate)) was 4.20 µg/mL. The “IC50 A549” value (A549 (lung)) was 3.85 µg/mL.

With `COc1ccc2c(CN3CCC(NC(=O)OC(C)(C)C)CC3)cc3cc4c(cc3c2c1)OCO4` [Compound 11] the “IC50 KBvin” value [1] was 0.49 µg/mL (≈ 1.05 µM), the “IC50 KB” value (KB (nasopharyngeal)) was 0.40 µg/mL (≈ 0.861 µM) and the “IC50 DU145” value (DU-145 (prostate)) was 0.43 µg/mL (≈ 0.926 µM). The “IC50 A549” value (A549 (lung)) was 0.41 µg/mL (≈ 0.883 µM).

With `COc1ccc2c(CN3CCC(N)CC3)cc3cc4c(cc3c2c1)OCO4.Cl.Cl` [Compound 12] the “IC50 KBvin” value [1] was 0.29 µg/mL, the “IC50 KB” value (KB (nasopharyngeal)) was 0.24 µg/mL and the “IC50 DU145” value (DU-145 (prostate)) was 0.34 µg/mL. The “IC50 A549” value (A549 (lung)) was 0.16 µg/mL.

With `COc1ccc2c(CN3CCC(C(F)(F)F)CC3)cc3cc4c(cc3c2c1)OCO4` [Compound 13] the “IC50 KBvin” value [1] was 3.12 µg/mL (≈ 7.47 µM), the “IC50 KB” value (KB (nasopharyngeal)) was 3.88 µg/mL (≈ 9.3 µM) and the “IC50 DU145” value (DU-145 (prostate)) was 5.24 µg/mL (≈ 12.6 µM). The “IC50 A549” value (A549 (lung)) was 2.74 µg/mL (≈ 6.56 µM).

With `COc1ccc2c(CN3CCC(C#N)CC3)cc3cc4c(cc3c2c1)OCO4` [Compound 14] the “IC50 KBvin” value [1] was 0.43 µg/mL (≈ 1.15 µM), the “IC50 KB” value (KB (nasopharyngeal)) was 0.42 µg/mL (≈ 1.12 µM) and the “IC50 DU145” value (DU-145 (prostate)) was 0.41 µg/mL (≈ 1.09 µM). The “IC50 A549” value (A549 (lung)) was 0.33 µg/mL (≈ 0.881 µM).

With `COc1ccc2c(CN3CCC(=O)CC3)cc3cc4c(cc3c2c1)OCO4` [Compound 15] the “IC50 values across the panel” value [6] was roughly 0.04 µg/mL (≈ 0.11 µM), the “IC50 KBvin” value [1] was 0.05 µg/mL (≈ 0.138 µM) and the “IC50 KB” value (KB (nasopharyngeal)) was 0.04 µg/mL (≈ 0.11 µM). For the same compound, the “IC50 DU145” value (DU-145 (prostate)) was 0.04 µg/mL (≈ 0.11 µM) and the “IC50 A549” value (A549 (lung)) was 0.04 µg/mL (≈ 0.11 µM).

With `COc1ccc2c(CN3CCC(NS(C)(=O)=O)CC3)cc3cc4c(cc3c2c1)OCO4` [Compound 17] the “IC50 KBvin” value [1] was 0.48 µg/mL (≈ 1.08 µM), the “IC50 KB” value (KB (nasopharyngeal)) was 0.29 µg/mL (≈ 0.655 µM) and the “IC50 DU145” value (DU-145 (prostate)) was 0.45 µg/mL (≈ 1.02 µM). The “IC50 A549” value (A549 (lung)) was 0.45 µg/mL (≈ 1.02 µM).

In the case of `COC(=O)C1CCCN(Cc2cc3cc4c(cc3c3cc(OC)ccc23)OCO4)C1` (stereo not drawn) [Compound 18], the “IC50 KBvin” value [1] is reported as 1.24 µg/mL (≈ 3.04 µM), the “IC50 KB” value (KB (nasopharyngeal)) is reported as 0.79 µg/mL (≈ 1.94 µM) and the “IC50 DU145” value (DU-145 (prostate)) is reported as 1.09 µg/mL (≈ 2.68 µM). For the same compound, the “IC50 A549” value (A549 (lung)) was 0.76 µg/mL (≈ 1.87 µM).

With `COC(=O)C1CCCN(Cc2cc3cc4c(cc3c3cc(OC)ccc23)OCO4)C1` (stereo not drawn) [Compound 19] the “IC50 KBvin” value [1] was 0.58 µg/mL (≈ 1.42 µM), the “IC50 KB” value (KB (nasopharyngeal)) was 0.53 µg/mL (≈ 1.3 µM) and the “IC50 DU145” value (DU-145 (prostate)) was 0.61 µg/mL (≈ 1.5 µM). The “IC50 A549” value (A549 (lung)) was 0.53 µg/mL (≈ 1.3 µM).

For `COc1ccc2c(CN3CCC(CN)CC3)cc3cc4c(cc3c2c1)OCO4.Cl.Cl` [Compound 20], the “IC50 KB” value (KB (nasopharyngeal)) was 0.12 µg/mL, the “IC50 DU145” value (DU-145 (prostate)) was 0.16 µg/mL and the “IC50 A549” value (A549 (lung)) was 0.22 µg/mL.

In the case of `COc1ccc2c(CN3CCC(O)CC3)cc3cc4c(cc3c2c1)OCO4` [Compound 21], the “IC50 values across the panel” value [6] is reported as ~0.04 µg/mL and 0.03 to 0.04 µg/mL, the “fold more active compared with compound 1” value ([6]; vs compound 1) is reported as “about 2 fold” and the “IC50 KB” value (KB (nasopharyngeal)) is reported as 0.03 µg/mL (≈ 0.0821 µM). The “IC50 DU145” value (DU-145 (prostate)) was 0.04 µg/mL (≈ 0.109 µM) and the “IC50 A549” value (A549 (lung)) was 0.03 µg/mL (≈ 0.0821 µM).

With `COc1ccc2c(CN3CCCC(=O)C3)cc3cc4c(cc3c2c1)OCO4` [Compound 22] the “decrease of inhibitory potency, oxo group at C-3′ (15 vs. 22)” value ([6]; vs compound 15) was “about 8 fold”, the “IC50 KB” value (KB (nasopharyngeal)) was 0.30 µg/mL (≈ 0.826 µM) and the “IC50 DU145” value (DU-145 (prostate)) was 0.39 µg/mL (≈ 1.07 µM). For the same compound, the “IC50 A549” value (A549 (lung)) was 0.29 µg/mL (≈ 0.798 µM).

With `COc1ccc2c(CN3CCCC(CO)C3)cc3cc4c(cc3c2c1)OCO4` (stereo not drawn) [Compound 23] the “IC50 KB” value (KB (nasopharyngeal)) was 0.07 µg/mL (≈ 0.184 µM), the “IC50 DU145” value (DU-145 (prostate)) was 0.06 µg/mL (≈ 0.158 µM) and the “IC50 A549” value (A549 (lung)) was 0.05 µg/mL (≈ 0.132 µM).

For `COc1ccc2c(CN3CCCC(CO)C3)cc3cc4c(cc3c2c1)OCO4` (stereo not drawn) [Compound 24], the “IC50 KB” value (KB (nasopharyngeal)) was 0.07 µg/mL (≈ 0.184 µM), the “IC50 DU145” value (DU-145 (prostate)) was 0.10 µg/mL (≈ 0.264 µM) and the “IC50 A549” value (A549 (lung)) was 0.07 µg/mL (≈ 0.184 µM).

In the case of `COc1ccc2c(CN3CCC(CNC(=O)OC(C)(C)C)CC3)cc3cc4c(cc3c2c1)OCO4` [Compound 25], the “IC50 KB” value (KB (nasopharyngeal)) is reported as 0.43 µg/mL (≈ 0.898 µM), the “IC50 DU145” value (DU-145 (prostate)) is reported as 0.40 µg/mL (≈ 0.836 µM) and the “IC50 A549” value (A549 (lung)) is reported as 0.27 µg/mL (≈ 0.564 µM).
